{"source": "patent US8637090B2", "about": "“Gallium formulation for the treatment and prevention of infectious diseases” (Aridis Pharmaceuticals, priority 2009, dated 2014)", "key": {"[1]": {"assay": "Crystallinity of spray dried gallium powders by powder X-ray diffraction", "format": "physicochemical", "conditions": "qualitative analysis of crystallinity, XRD 5° to 75° 2θ", "procedure": "Crystallinity of the spray dried gallium powders was determined using a Philips X-Pert Pro MPD powder diffractometer. The radiation used was generated by a Cu Kα source with a wavelength of 1.5406 Å at 45 kV and 40 mA. Samples were scanned from 5° to 75° 2θ at a scanning rate of 1.2° 2θ/min using a slit width of 0.25°. Particular emphasis was placed on determining the effects of the various excipients on the crystallinity of the spray dried particles. The composition of the gallium formulations examined, as well as the residual moisture content and a qualitative analysis of crystallinity are shown in Table 8. X-ray diffractometer (XRD) scans reveal that spray dried gallium nitrate is amorphous as are mannitol and L-leucine (FIG. 5). Sodium citrate, however, is crystalline and the crystallinity is maintained even in the presence of other excipients."}, "Pa": {"test_system": "Pa", "conditions": "mouse; nasal instillation of a bolus of liquid; also under in vivo Pa biofilm colonization conditions; cited from earlier work"}, "[2]": {"test_system": "Pseudomonas aeruginosa (Pa)", "conditions": "against Pa; cited from earlier work"}, "B. anthracis 7702 cells": {"test_system": "B. anthracis 7702 cells", "format": "cell-based", "conditions": "1:1 gallium-to-citrate, approximately 20 hours of growth"}}, "note": "Where two headings read alike, the source gives them in different places.", "data": [{"smiles": "O=[N+]([O-])[O-].O=[N+]([O-])[O-].O=[N+]([O-])[O-].[Ga+3]", "note": "[Gallium, gallium nitrate]", "values": [{"measurement": "Crystalline/Amorphous", "setting": "[1]", "result": "amorphous"}, {"measurement": "protection after lethal i.t. Pa inoculation", "setting": "Pa", "result": "good protection"}, {"measurement": "bactericidal concentration (MBC)", "setting": "[2]", "result": "approximately 0.7 μg/mL"}, {"measurement": "minimum inhibitory concentration (MIC90)", "setting": "[2]", "result": "approximately 0.7 μg/mL"}, {"measurement": "OD600 nm", "setting": "B. anthracis 7702 cells; Gallium concentration 6.8 μM", "result": 0.000}, {"measurement": "OD600 nm", "setting": "B. anthracis 7702 cells; Gallium concentration 23.3 μM", "result": 0.000}, {"measurement": "OD600 nm", "setting": "B. anthracis 7702 cells; Gallium concentration 27.1 μM", "result": 0.001}, {"measurement": "OD600 nm", "setting": "B. anthracis 7702 cells; Gallium concentration 88.9 μM", "result": 0.003}, {"measurement": "OD600 nm", "setting": "B. anthracis 7702 cells; Gallium concentration 614.8 μM", "result": 0.000}, {"measurement": "OD600 nm", "setting": "B. anthracis 7702 cells; Gallium concentration 1709.9 μM", "result": 0.000}]}]}
